Like-named read-outs stand apart in the source and are kept apart here.
How the values were obtained:
[1] = test system: LoVo human colon carcinoma cells; assay: Viability assay (LDH release), LoVo; type: cell-based; settings: Homo sapiens, LoVo, 48 h, read-out: Mean % of viable cells ± SD, LoVo
Description: (§1) The anticancer activities of all the synthesized compounds were assessed against two human colon carcinoma cell lines, namely LoVo and HCT-116 (Table 6), via the determination of the mean percents of the viable cancerous cells remaining after being incubated with 200 µg/mL of each test compound for 48 h using LDH assay.
(§2) The samples were diluted in Dulbecco’s Modified Eagle’s Medium, consisting of 10% fetal bovine serum (FBS), added to cells grown and cultured for 24 h in a 5% CO2-humidified incubator at 37 °C. Thereafter, the activity of lactate dehydrogenase released from damaged cells was determined in the collected supernatant aliquots using an ELISA end-point assay (Benchmark Plus, Bio-Rad, CA, USA); 0.1% Triton X-100 in the assay medium and the assay medium only were used as the positive and negative controls, respectively. Cell viability was expressed as a relative percentage of the OD values (at 550 nm) for compound-treated cells (final concentration of 200 µg /mL) and the negative control, which was shown as the mean % ± SD (n = 3). The results of the viability assays for the potential cytotoxic candidates were compared with the % of viable human umbilical vein endothelial cells (HUVEC) at the same concentration. These cells were grown in Dulbecco’s Modified Eagle’s Medium (PAN-Biotech; Barcelona, Spain) containing 10% FBS (Sigma Aldrich; St. Quentin-Fallavier, France), 2 mM Glutamine (Sigma Aldrich), 100 units/mL penicillin and […] streptomycin (Life Technologies; Paisley, UK).

COX-2 = target: T1, COX-2 (Homo sapiens, UniProt P35354); assay: COX-2 inhibitory screening assay (Cayman kit); type: biochemical; settings: for Increase in COX-2 inhibitory efficiency by duplicating the concentration: % inhibition at 0.200 mg/mL divided by % inhibition at 0.100 mg/mL; for inhibition at 100 µg/mL: at 0.100 mg/mL; for inhibition at 100 µg/mL / inhibition at 200 µg/mL: read-out: COX-2 mean % inhibition ± SD; for inhibition at 200 µg/mL: at 0.200 mg/mL
T1 construct: purchased Cayman Chemical Company 701080
T1 sequence (P35354 18-604): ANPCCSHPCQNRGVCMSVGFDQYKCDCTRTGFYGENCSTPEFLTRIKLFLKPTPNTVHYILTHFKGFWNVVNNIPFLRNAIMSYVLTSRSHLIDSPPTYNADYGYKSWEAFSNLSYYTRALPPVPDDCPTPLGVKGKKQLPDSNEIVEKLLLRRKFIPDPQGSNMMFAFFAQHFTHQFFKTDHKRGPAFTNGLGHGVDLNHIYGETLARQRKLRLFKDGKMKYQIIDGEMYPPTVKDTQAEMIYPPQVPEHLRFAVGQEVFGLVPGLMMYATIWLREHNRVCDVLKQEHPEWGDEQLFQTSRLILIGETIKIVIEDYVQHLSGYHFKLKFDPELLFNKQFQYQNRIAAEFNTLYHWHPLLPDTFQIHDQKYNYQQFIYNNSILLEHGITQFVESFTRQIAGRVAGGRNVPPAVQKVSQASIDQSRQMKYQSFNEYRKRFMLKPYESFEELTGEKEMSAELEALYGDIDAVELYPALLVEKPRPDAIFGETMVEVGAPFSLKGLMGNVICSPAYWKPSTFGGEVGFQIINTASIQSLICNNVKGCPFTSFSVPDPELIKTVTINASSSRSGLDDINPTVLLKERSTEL
Description: Each compound of the two series, 3a–h and 5a–h, was resuspended in 100% DMSO at a final concentration of 10 mg/mL. […] Briefly, 10 µL of the tested compound was added to a mixture of the reaction buffer solution (160 µL of 0.1 M Tris-HCl, pH 8.0, in the presence of 2 mM phenol and 5 mM EDTA), COX-2 (10 µL) and heme (10 µL). After a 10 min incubation at 37 °C, the reaction was started by adding arachidonic acid (10 µL), rapidly mixed and kept at 37 °C for 2 min. PGF2α generated via PGH2 reduction with stannous chloride (30 µL) was incubated at room temperature for 5 min. The PGF2α amount was then determined via an enzyme immunoassay. Prior to incubation with the COX-2 reaction (at room temperature 18 h), the 96-well plate was previously coated with a mouse anti-rabbit monoclonal antibody. Unbound reagents were removed by washing the plate followed by adding Ellman’s reagent to the well. The reaction product displaying a distinct yellow color was measured at 410 nm using a UV microplate reader. The % inhibition was calculated by comparing the PGF2α produced in the compound-treated samples with a control sample, using the following equation: % inhibition is equal to [([PGF2α]control − [PGF2α]sample) /[PGF2α ]control ] × 100. […] The COX-2 inhibitory efficiency was expressed as an inhibition percentage, which was determined via a comparison with the negative control experiments.

[2] = test system: HCT-116 human colon carcinoma cells; assay: Viability assay (LDH release), HCT-116; type: cell-based; settings: Homo sapiens, read-out: Mean % of viable cells ± SD, HCT-116
Description: as §1, §2

α-amylase = assay: In vitro α-amylase (AA) inhibition assay; settings: mean ± SD of three replicates; for IC50: read-out: Mean IC50 α-Amylase (AA)
Description: Then, 180 µL of Labtest (the amylase substrate) was added and the samples were incubated for 8 min, followed by measuring the first reaction at 620 nm to obtain (X1). Afterwards, the reaction mixture was incubated for an additional 5 min at 37 °C; then, the second reaction was measured to obtain the final reading (X2). […] The results were expressed as IC50 µg/mL (as well as µM) and were determined from the standard curves.

[3] = target: purified recombinant human LDHA protein (Homo sapiens, UniProt P00338); assay: Lactate dehydrogenase A (LDHA) inhibitory assay; type: biochemical; settings: for Fold change of LDHA inhibition as compared to 0.1 mg/mL: % inhibition at 0.200 mg/mL divided by % inhibition at 0.100 mg/mL; for inhibition at 100 µg/mL: at 0.1 mg/mL; for inhibition at 100 µg/mL / inhibition at 200 µg/mL: read-out: LDHA mean % inhibition ± SD; for inhibition at 200 µg/mL: at 0.2 mg/mL
Description: The LDHA inhibitory effectiveness was investigated by measuring the amounts of consumed NADH [73]. […] The fluorescence of NADH, which has an excitation wavelength of 340 nm and an emission wavelength of 460 nm, was detected using a spectrofluorometer. […] The LDHA inhibitory efficiency was expressed as an inhibition percentage, which was determined via a comparison with the negative control experiments.

[4] = DPPH radical scavenging assay; type: biochemical; settings: for Mean IC50 for scavenging initial DPPH radicals: mean ± SD of three replicates; for IC50: mean ± SD, converted from mg/mL, read-out: Mean IC50 for scavenging initial DPPH radicals (converted)
Source text: In principle, the antioxidant power of a compound in this assay is correlated to its tendency to reduce the stable, purple-colored DPPH radical through a hydrogen atom transfer (HAT) mechanism and/or a single electron transfer mechanism, thereby converting it to the yellow-colored 2,2-diphenyl-1-picrylhydrazine, whereby this reduction is accompanied by a depletion in the amount of the initial DPPH radicals and a change in the absorbance of the test solution accordingly, which can be detected relative to the blank solution at λ = 517 nm.
The antioxidant potencies of all synthesized compounds were investigated using a 1,1 diphenyl-2-picrylhydrazyl (DPPH) radical scavenging assay according to the protocol described by Bersuder et al.. In brief, a 0.5 mL volume of DPPH ethanolic solution was mixed with an equal volume of each sample concentration (i.e., the test compound or butylated hydroxytoluene, BHT, which was used as the reference antioxidant in the positive control experiment), shaken strongly, and incubated at room temperature for 1 h in darkness. The absorbance of the residual DPPH radicals was measured at λ = 519 nm and compared to the negative control (without the test compound or reference antioxidant). The DPPH radical scavenging power was calculated using the following formula: scavenging efficiency (%) = (1 − Acompound/AControl) × 100, where Acompound and Acontrol are the absorbance of the tested compound and the negative control, respectively. […] Additionally, the ± SD values were calculated from three independent triplicate measurements.

| Compound | viability at 200 µg/mL [1] [%] | Increase in COX-2 inhibitory efficiency by duplicating the concentration (COX-2) [fold] | inhibition at 100 µg/mL (COX-2) [%] | inhibition at 200 µg/mL (COX-2) [%] | viability at 200 µg/mL ([2]; HCT-116, 48 h) [%] | IC50 (α-amylase) [µM] | Fold change of LDHA inhibition as compared to 0.1 mg/mL [3] [fold] | inhibition at 100 µg/mL [3] [%] | inhibition at 200 µg/mL [3] [%] | viability at 200 µg/mL ([1]; 200 µg/mL) [%] | Mean IC50 for scavenging initial DPPH radicals [4] [mg/mL] | IC50 [4] [µM] | viability at 200 µg/mL ([2]; HCT-116, 200 µg/mL, 48 h) [%] | Mean IC50 α-Amylase (AA) (α-amylase) [µg/mL] |
| --- | --- | --- | --- | --- | --- | --- | --- | --- | --- | --- | --- | --- | --- | --- |
| O=c1c2cc(Br)ccc2[nH]c(=S)n1-c1cccc(C(F)(F)F)c1 [Compound 3b, 6-Bromo-2-thioxo-3-(3-trifluoromethyl-phenyl)-2,3-dihydro-1H-quinazolin-4-one] | 62 ± 3.61 | 1.72 | 6.25 ± 1.77 | 10.8 ± 2.48 | 70.7 ± 2.52 | 427 | 1.45 | 29.1 ± 2.19 | 42.4 ± 1.91 | – | – | – | – | – |
| COc1ccc(Br)c(CSc2nc3ccc(Cl)cc3c(=O)n2-c2ccc([N+](=O)[O-])cc2)c1 [Compound 5f, 2-(2-Bromo-5-methoxy-benzylsulfanyl)-6-chloro-3-(4-nitro-phenyl)-3H-quinazolin-4-one] | – | 1.80 | 28.9 ± 2.69 | 52 ± 2.83 | – | 200 | 1.60 | 31.9 ± 2.48 | 51 ± 3.61 | 84.3 ± 3.51 | 0.241 ± 0.013 | 452 | 76 ± 1.73 | 106.667 ± 5.033 |
| Cc1cc(C(C)(C)C)c(O)c(C(C)(C)C)c1 [BHT, butylated hydroxy toluene, reference compound] | – | – | – | – | – | – | – | – | – | – | 0.054 ± 0.006 | 245 | – | – |
| COc1ccc(Br)c(CSc2nc3ccc(Br)cc3c(=O)n2-c2ccc(C(F)(F)F)cc2)c1 [Compound 5e, 2-(2-Bromo-5-methoxybenzylsulfanyl)-6-bromo-3-(4-trifluoromethyl-phenyl)-3H-quinazolin-4-one] | – | 1.67 | 31 ± 2.83 | 51.6 ± 4.88 | – | 250 | 1.29 | 15.2 ± 1.77 | 19.6 ± 2.33 | 64.3 ± 2.08 | 0.225 ± 0.021 | 375 | 79.7 ± 2.52 | 150.333 ± 3.512 |

Source: article PMC10610505, “Synthesis and Biological Evaluation of Some New 3-Aryl-2-thioxo-2,3-dihydroquinazolin-4(1H)-ones and 3-Aryl-2-(benzylthio)quinazolin-4(3H)-ones as Antioxidants; COX-2, LDHA, α-Glucosidase and α-Amylase Inhibitors; and Anti-Colon Carcinoma and Apoptosis-Inducing Agents” (Pharmaceuticals, 2023)
